Measured values reported in patent publication US20240279228A1, “NOVEL SALTS AND CRYSTALS” (INTRA-CELLULAR THERAPIES, INC., priority 2021, published 2024).
Where a name gives a salt, the structure may show the parent alone. Read-outs that look alike come from different tables or passages of the source. Values belong to the compound of their own block, whether it stands above or below them.

How the values were obtained:
[1] = Colour and chemical stability of the solid salt in air; assay type: physicochemical; conditions: for Colorization: tosylate salt product of process experiment
[2] = Decomposition of salt crystals by NMR; assay type: physicochemical; conditions: crystals from salt screening
Description: Further experiments are performed using some of the successful acid/solvent/method conditions from Example 1, with variations in the solvent volume and/or material concentrations and/or changes to the molar ratio of Compound A free base to acid (1:1.2, 1:1.5 or 1:2). Some experiments are further repeated at a 500 mg scale for confirmation of the results, including additional analysis, including 1H-NMR, DSC/TGA, and/or FTIR.

[3] = Solubility of Compound A free base in solvents; assay type: physicochemical
[4] = Hygroscopicity of Compound A free base; assay type: physicochemical
[5] = Solubility of the salts in water; assay type: physicochemical; conditions: salt
[6] = solid tosylate salt of WO2020/131895, on standing; cited from earlier work

- Colorization [1]: No
SMILES: O=C1CN2c3c(cccc3[C@@H]3CN(CCCOc4ccc(F)cc4)CC[C@@H]32)N1 [Compound 5-1]

- Colorization [1]: No
SMILES: O=C1CN2c3c(cccc3[C@@H]3CN(CCCOc4ccc(F)cc4)CC[C@@H]32)N1 [Compound 5-3]

- Decomposition by NMR [2]: show decomposition
SMILES: O=C1CN2c3c(cccc3[C@@H]3CN(CCCOc4ccc(F)cc4)CC[C@@H]32)N1 [hydrochloride crystals]

- Solubility (general) ([3]; free base form): very poor solubility
- Solubility in DMSO ([3]; free base, DMSO): freely soluble
- Solubility in anisole ([3]; free base, anisole): sparingly soluble
- Solubility in ethyl salicylate ([3]; free base, ethyl salicylate): sparingly soluble
- Solubility in most organic solvents and water ([3]; free base, most organic solvents and water): less than sparingly soluble
- solubility ([3]; free base, water, read-out: Solubility in water): < 11 mg/mL
- solubility ([3]; organic solvent or mixture, free base, 2-butanol, read-out: Solubility in 2-butanol): < 11 mg/mL
- solubility ([3]; organic solvent or mixture, free base, cyclohexane, read-out: Solubility in cyclohexane): < 11 mg/mL
- solubility ([3]; organic solvent or mixture, free base, ethyl acetate, read-out: Solubility in ethyl acetate): < 11 mg/mL
- solubility ([3]; organic solvent or mixture, free base, heptane, read-out: Solubility in heptane): < 11 mg/mL
- solubility ([3]; organic solvent or mixture, free base, methanol, read-out: Solubility in methanol): < 11 mg/mL
- Hygroscopicity [4]: slightly hygroscopic
SMILES: O=C1CN2c3c(cccc3[C@@H]3CN(CCCOc4ccc(F)cc4)CC[C@@H]32)N1 [Compound A, (6bR,10aS)-8-(3-(4-fluorophenoxy)propyl)-6b,7,8,9,10,10a-hexahydro-1H-pyrido[3′,4′:4,5]pyrrolo[1,2,3-de]quinoxalin-2(3H)-one]

- Colorization [1]: No
SMILES: O=C1CN2c3c(cccc3[C@@H]3CN(CCCOc4ccc(F)cc4)CC[C@@H]32)N1 [Compound 5-2]

- Solubility in water [5]: 0.2 to 0.3 mg/mL
SMILES: O=C1CN2c3c(cccc3[C@@H]3CN(CCCOc4ccc(F)cc4)CC[C@@H]32)N1 [oxalate salt]

- Solubility in water [5]: 1.2 to 1.7 mg/mL
SMILES: O=C1CN2c3c(cccc3[C@@H]3CN(CCCOc4ccc(F)cc4)CC[C@@H]32)N1 [tosylate salt]
- Discoloration on standing [6]: discolors on standing

- Colorization [1]: Yes
SMILES: O=C1CN2c3c(cccc3[C@@H]3CN(CCCOc4ccc(F)cc4)CC[C@@H]32)N1 [Compound 3-2]

- Colorization [1]: Slight
SMILES: O=C1CN2c3c(cccc3[C@@H]3CN(CCCOc4ccc(F)cc4)CC[C@@H]32)N1 [Compound 5-5]

- Colorization [1]: No
SMILES: O=C1CN2c3c(cccc3[C@@H]3CN(CCCOc4ccc(F)cc4)CC[C@@H]32)N1 [Compound 5-4]

- Colour change of the powder ([1]; at room temperature): slowly turns purple
SMILES: O=C1CN2c3c(cccc3[C@@H]3CN(CCCOc4ccc(F)cc4)CC[C@@H]32)N1 [Example 3]
